Entries after “also recorded” stand apart in the source; their conditions may differ. Each block holds one molecule with its values, some of them ahead of it.
Columns and labels:
[1] = molecular target: T1, progesterone receptor (estrogen-primed rabbit uterus) (Oryctolagus cuniculus, UniProt P06186); assay: Relative binding affinity, progesterone receptor; conditions: for BINDING AFFINITY Progester: Table 2; for BINDING AFFINITY Progester / RELATIVE BINDING AFFINITY Progesterone: estrogen-primed rabbit uterus, progesterone = 100%; for binding affinities compared with the standard, compound 69B: progesterone receptor implied (rabbit or human isoform A not specified)
T1 construct: preparation of cytosols for the progesterone and glucocorticoid receptor assays; from tissue; host or cells: uterus of estradiol-primed immature female New Zealand White rabbits (cytosol)
T1 sequence (P06186 1-930): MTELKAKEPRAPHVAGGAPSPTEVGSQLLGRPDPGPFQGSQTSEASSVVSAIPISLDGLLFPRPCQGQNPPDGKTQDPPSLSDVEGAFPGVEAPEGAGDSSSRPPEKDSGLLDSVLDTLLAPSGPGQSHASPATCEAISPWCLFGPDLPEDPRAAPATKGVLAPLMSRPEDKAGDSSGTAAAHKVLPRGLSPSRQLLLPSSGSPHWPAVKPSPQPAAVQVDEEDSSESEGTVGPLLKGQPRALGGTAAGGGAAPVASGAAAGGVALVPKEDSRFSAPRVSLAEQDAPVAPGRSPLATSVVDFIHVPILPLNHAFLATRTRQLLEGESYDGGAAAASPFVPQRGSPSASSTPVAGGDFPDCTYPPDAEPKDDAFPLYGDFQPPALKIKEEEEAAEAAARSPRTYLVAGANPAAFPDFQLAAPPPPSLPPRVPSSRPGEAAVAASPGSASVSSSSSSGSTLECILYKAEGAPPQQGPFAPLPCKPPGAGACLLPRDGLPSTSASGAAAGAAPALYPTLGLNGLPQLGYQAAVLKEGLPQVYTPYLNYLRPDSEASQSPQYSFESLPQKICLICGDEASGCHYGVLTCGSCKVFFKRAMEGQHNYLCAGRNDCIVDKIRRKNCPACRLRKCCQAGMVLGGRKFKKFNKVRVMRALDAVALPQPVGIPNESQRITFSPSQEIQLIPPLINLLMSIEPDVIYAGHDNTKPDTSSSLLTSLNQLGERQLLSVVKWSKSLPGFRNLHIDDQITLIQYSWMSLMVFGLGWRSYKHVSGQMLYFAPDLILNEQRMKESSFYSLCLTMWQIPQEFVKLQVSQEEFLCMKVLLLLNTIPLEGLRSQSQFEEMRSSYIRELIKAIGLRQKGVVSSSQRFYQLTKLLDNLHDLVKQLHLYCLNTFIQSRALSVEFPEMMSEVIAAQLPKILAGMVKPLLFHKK
Procedure: (§1) Relative Binding Affinities for the Progesterone and Glucocorticoid Receptors
(§2) Uteri and thymus glands were obtained from estradiol-primed immature female rabbits of the New Zealand White strain for preparation of cytosols for the progesterone and glucocorticoid receptor assays, respectively. Tissues were excised and immediately placed in ice cold TEGDM buffer (10 mM Tris, pH 7.4; 1.5 mM EDTA; 10% glycerol vol/vol/; 1 mM dithiothreitol [DTT]; and 20 mM sodium molybdate). The tissues were dissected free of connective tissue and fat, weighed and minced finely. Minced tissues were homogenized in 3 volumes TEGDM/gm with four 10 second bursts of a VirTis Cyclone set at half maximum speed with a 30 second cooling period (in ice) between bursts. Homogenates were centrifuged at 109,663 g at 4° C. for 1 hour to yield the soluble cytosol fiction. Aliquots of cytosol were snap frozen and stored at −75° C.
(§3) All binding assays were carried out at 2-6° C. for 16-18 hours. The following radioactive ligands were used: [1,2-^3H(N)]-progesterone (50.0 Ci/mmole) for the progesterone receptor (PR). […] For the progesterone receptor RBA assays 0.02 ml uterine cytosol or TEDGM buffer, 0.05 ml of various concentrations of test compounds or progesterone, 0.13 ml TEGDM buffer and 0.05 ml [^3H]-progesterone were added to duplicate tubes. For the glucocorticoid receptor RBA assays 0.1 ml thymus cytosol or TEDGM buffer, 0.05 ml of various concentrations of test compounds or dexamethasone, 0.05 ml TEGDM buffer and 0.05 ml [3H]-dexamethasone were added to duplicate tubes. For the estrogen receptor RBA assays 0.05 ml uterine cytosol, 0.1 ml TEGDM buffer, 0.05 ml of various concentrations of test compounds or estradiol and 0.05 ml [^3H]-estradiol were added to duplicate tubes. The concentrations of the test compounds, progesterone, dexamethasone and estradiol ranged from 0.05 to 100 nM and the concentrations of the competitors ranged from 0.5 to 500 nM. Total binding was measured at radioligand concentrations of 3.5 nM and nonspecific binding was measured in the presence of a 200-fold excess of unlabeled progesterone (PR), dexamethasone (GR) or diethylstilbestrol (ER), respectively.
(§4) In all incubations bound and free ligand were separated using dextra-coated charcoal (DCC). A 0.1 ml aliquot of DCC (0.5% charcoal/0.05% Dextran T-70) was added to each tube. The tubes were vortexed and incubated on ice for 10 minutes. Five-tenths ml TEG buffer (without DTT or molybdate) was then added to all tubes to improve supernatant recovery following centrifugation. The charcoal was pelleted by centrifugation at 2,100 g for 15 minutes at 4° C. The supernatants containing the [^3H]-steroid receptor complexes were decanted into vials containing 4 ml Optifluor (Packard Instrument Co.), vortexed, equilibrated in a liquid scintillation counter for 30 minutes and then counted for 2 minutes. This provided the quantity of receptor bound [^3H]-steroid at each competitor concentration.

[2] = system: progesterone-induced endometrial proliferation; assay: AntiClauberg test; type: in vivo, rabbit; design: key to ANTIPROGESTATIONAL Anti-Clauberg: relative oral potency vs. reference compound set to 100; conditions: for BIOLOGICAL ACTIVITY antiClauberg: Table 2; for BIOLOGICAL ACTIVITY antiClauberg / ANTIPROGESTATIONAL Anti-Clauberg: CDB-2914 = 100 (assigned); for ANTIPROGESTATIONAL Anti-Clauberg: relative potency; for antiClauberg / oral antiprogestational activity, in words: versus the standard 69B
Procedure: AntiClauberg Test (Clauberg, C., Zentr. Gynakol., 54:2757-2770 (1930)) Immature female rabbits of the New Zealand White breed (approx. 1 kg body weight) were maintained under standard laboratory conditions and received a subcutaneous injection of 5 μg estradiol in 10% ethanol/sesame oil daily for 6 consecutive days. Twenty-four hours after the last dose of estradiol (day 7) animals received progesterone by subcutaneous injection (0.8 mg/day) and the experimental compound in appropriate vehicle (usually 10% ethanol/sesame oil) orally or subcutaneously for five consecutive days. One group of rabbits received progesterone only. Twenty-four hours after the last dose all animals were sacrificed for removal of the uterus which was cleaned of all fat and connective tissue, weighed to the nearest 0.2 mg and placed in 10% neutral buffered formalin for subsequent histological processing. Five micron sections stained with hematoxylin and eosin (H&E) were evaluated microscopically for the degree of endometrial glandular proliferation according to the method of McPhail (McPhail, supra). The percent inhibition of endometrial proliferation at each dose level of the experimental compound was derived by comparison with the progesterone-stimulated animals alone.

[3] = molecular target: T2, glucocorticoid receptor (estrogen-primed rabbit thymus) (Oryctolagus cuniculus, UniProt P59667); assay: Relative binding affinity, glucocorticoid receptor; conditions: for BINDING AFFINITY Glucocortic: Table 2; for BINDING AFFINITY Glucocortic / RELATIVE BINDING AFFINITY Glucocorticoid: estrogen-primed rabbit thymus, dexamethasone = 100%
T2 construct: preparation of cytosols for the progesterone and glucocorticoid receptor assays; from tissue; host or cells: thymus of estradiol-primed immature female New Zealand White rabbits (cytosol)
T2 sequence (P59667 1-772): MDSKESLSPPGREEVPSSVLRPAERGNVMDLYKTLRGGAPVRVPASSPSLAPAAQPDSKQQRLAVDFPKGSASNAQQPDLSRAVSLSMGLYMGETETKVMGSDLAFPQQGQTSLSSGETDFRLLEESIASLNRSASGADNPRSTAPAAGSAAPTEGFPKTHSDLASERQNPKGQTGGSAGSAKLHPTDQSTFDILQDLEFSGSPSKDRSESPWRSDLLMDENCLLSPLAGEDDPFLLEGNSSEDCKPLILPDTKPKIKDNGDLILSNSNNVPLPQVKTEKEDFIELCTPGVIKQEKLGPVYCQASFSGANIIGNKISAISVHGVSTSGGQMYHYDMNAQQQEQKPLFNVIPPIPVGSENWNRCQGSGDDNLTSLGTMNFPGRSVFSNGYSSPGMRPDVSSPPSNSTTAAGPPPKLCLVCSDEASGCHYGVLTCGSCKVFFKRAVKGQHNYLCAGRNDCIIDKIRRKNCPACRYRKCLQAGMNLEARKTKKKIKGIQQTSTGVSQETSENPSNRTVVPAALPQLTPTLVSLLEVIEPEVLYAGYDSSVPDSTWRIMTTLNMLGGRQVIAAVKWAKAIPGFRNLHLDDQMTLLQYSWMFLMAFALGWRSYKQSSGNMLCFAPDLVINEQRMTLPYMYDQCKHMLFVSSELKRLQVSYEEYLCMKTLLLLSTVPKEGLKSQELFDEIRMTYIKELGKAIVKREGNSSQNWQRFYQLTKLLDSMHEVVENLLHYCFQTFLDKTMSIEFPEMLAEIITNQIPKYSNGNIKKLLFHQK
Procedure: as §1, §2, §3, §4

Molecule: 17α-Acetoxy-11β-[4-(N,N-diethylamino)phenyl]-21-thiocyanato-19-norpregna-4,9-diene-3,20-dione [Compound 138]
BINDING AFFINITY Progester [1]: 63%
BIOLOGICAL ACTIVITY antiClauberg ([2]; oral): 57
BINDING AFFINITY Glucocortic [3]: 14%

Molecule: COCC(=O)[C@@]1(OC(C)=O)CC[C@H]2[C@@H]3CCC4=CC(=O)CCC4=C3[C@@H](c3ccc(N(C)C)cc3)C[C@@]21C [Compound 38, 17α-acetoxy-21-methoxy-11β-(4-N,N-dimethylaminophenyl)-19-norpregna-4,9-diene-3,20-dione]
RELATIVE BINDING AFFINITY Progesterone [1]: 103%
binding affinities compared with the standard, compound 69B [1]: binding affinities greater than that observed for the standard
ANTIPROGESTATIONAL Anti-Clauberg ([2]; oral): 361
antiprogestational potency compared to the lead compound (CDB-2914), oral antiClauberg test ([2]; oral, versus CDB-2914): 3.61 times
antiClauberg / oral antiprogestational activity, in words ([2]; oral): greater activity than the standard
RELATIVE BINDING AFFINITY Glucocorticoid [3]: 52%
binding affinity for the glucocorticoid receptor, in words ([3]; rabbit thymus, versus CDB-2914 (69B) where stated): substantial reduction in glucocorticoid binding affinity; also recorded: low binding affinity

Molecule: CC(=O)O[C@]1(C(=O)COC(=O)CCC2CCCC2)CC[C@H]2[C@@H]3CCC4=CC(=O)CCC4=C3[C@@H](c3ccc(N(C)C)cc3)C[C@@]21C [Compound 40, 17α-acetoxy-21-(3′-cyclopentylpropionyloxy)-11β-[4-(N,N-dimethylamino)phenyl]-19-norpregnadiene-3,20 dione]
RELATIVE BINDING AFFINITY Progesterone [1]: 74%
ANTIPROGESTATIONAL Anti-Clauberg ([2]; oral): 155
antiClauberg / oral antiprogestational activity, in words ([2]; oral): greater activity than the standard
more potent in the antiClauberg test than the lead compound ([2]; versus CDB-2914): about 50%
RELATIVE BINDING AFFINITY Glucocorticoid [3]: 37%

Molecule: CCOCC(=O)[C@@]1(OC(C)=O)CCC2C3CCC4=CC(=O)CCC4=C3C(c3ccc(N(C)C)cc3)C[C@@]21C (stereo partly drawn) [Compound 46, 17α-acetoxy-21-ethoxy-11β-[4-(N,N-dimethylamino)phenyl]-9-norpregna-4,9-diene-3,20-dione]
RELATIVE BINDING AFFINITY Progesterone [1]: 83%
ANTIPROGESTATIONAL Anti-Clauberg ([2]; oral): 130-210
antiClauberg / oral antiprogestational activity, in words ([2]; oral): greater activity than the standard
RELATIVE BINDING AFFINITY Glucocorticoid [3]: 46%

BINDING AFFINITY Progester [1]: 164%
BINDING AFFINITY Glucocortic [3]: 30%
Molecule: CC(=O)C1(OC=O)CCC2C3CCC4=CC(=O)CCC4=C3C(c3ccc(N(C)C)cc3)CC21C (stereo not drawn) [Compound 69A, 17α-formyloxy-11β-[4-(N,N-dimethylamino)phenyl]-19-norpregna-4,9-diene-3,20-dione]
binding affinities compared with the standard, compound 69B [1]: binding affinities greater than that observed for the standard
BIOLOGICAL ACTIVITY antiClauberg ([2]; oral): 97

Molecule: CC(=O)O[C@]1(C(C)=O)CC[C@H]2[C@@H]3CCC4=CC(=O)CCC4=C3[C@@H](c3ccc(N4CCCC4)cc3)C[C@@]21C [Compound 70, 17α-Acetoxy-11β-[4-(N-pyrrolidino)phenyl]-19-norpregna-4,9-diene-3,20-dione]
BINDING AFFINITY Progester [1]: 79%
BIOLOGICAL ACTIVITY antiClauberg ([2]; oral): ˜25

Molecule: CC(=O)OC1(C(C)=O)CCC2C3CCC4=CC(=O)CCC4=C3C(c3ccc(C(C)=O)cc3)CC21C (stereo not drawn) [Compound 73, 17α-Acetoxy-11β-(4-acetylphenyl)-19-norpregna-4,9-diene-3,20-dione]
binding affinities compared with the standard, compound 69B [1]: binding affinities greater than that observed for the standard

BINDING AFFINITY Progester [1]: 59%
BINDING AFFINITY Glucocortic [3]: 34%
Molecule: COCC(=O)C1(OC)CCC2C3CCC4=CC(=O)CCC4=C3C(c3ccc(N4CCCC4)cc3)CC21C (stereo not drawn) [Compound 113b]

Molecule: COCC(=O)C1(OC)CCC2C3CCC4=CC(=O)CCC4=C3C(c3ccc(C(C)=O)cc3)CC21C (stereo not drawn) [Compound 113d, 17α,21-Dimethoxy-11β-(4-acetylphenyl)-19-norpregna-4,9-diene-3,20-dione]
binding affinities compared with the standard, compound 69B [1]: binding affinities greater than that observed for the standard

Molecule: COCC(=O)C1(O)CCC2C3CCC4=CC(=O)CCC4=C3C(c3ccc(C(C)=O)cc3)CC21C (stereo not drawn) [Compound 122b, 17α-Hydroxy-11β-(4-acetylphenyl)-21-methoxy-19-norpregna-4,9-diene-3,20-dione]
binding affinities compared with the standard, compound 69B [1]: binding affinities greater than that observed for the standard

From patent US6900193B1, “Structural modification of 19-norprogesterone I: 17-α-substituted-11-β-substituted-4-aryl and 21-substituted 19-norpregnadienedione as new antiprogestational agents” (The United States of America as represented by the …, priority 1996, dated 2005)
